The values below come from ChEMBL document CHEMBL5696442, “Discovery of type II inhibitors of TGFβ-activated kinase 1 (TAK1) and mitogen-activated protein kinase kinase kinase kinase 2 (MAP4K2)” (J Med Chem, 2015).

Each structure is given as a SMILES string. Activity calls are given as the source filed them. No cut-off for these calls is given here.

The target in assay [1] is Tyrosine-protein kinase BTK (Homo sapiens) (UniProt Q06187). Description: Inhibition of BTK (unknown origin) at 1 uM by Ambit Kinomescan binding assay relative to control.
Tyrosine-protein kinase BTK (Homo sapiens), sequence (Q06187 whole entry): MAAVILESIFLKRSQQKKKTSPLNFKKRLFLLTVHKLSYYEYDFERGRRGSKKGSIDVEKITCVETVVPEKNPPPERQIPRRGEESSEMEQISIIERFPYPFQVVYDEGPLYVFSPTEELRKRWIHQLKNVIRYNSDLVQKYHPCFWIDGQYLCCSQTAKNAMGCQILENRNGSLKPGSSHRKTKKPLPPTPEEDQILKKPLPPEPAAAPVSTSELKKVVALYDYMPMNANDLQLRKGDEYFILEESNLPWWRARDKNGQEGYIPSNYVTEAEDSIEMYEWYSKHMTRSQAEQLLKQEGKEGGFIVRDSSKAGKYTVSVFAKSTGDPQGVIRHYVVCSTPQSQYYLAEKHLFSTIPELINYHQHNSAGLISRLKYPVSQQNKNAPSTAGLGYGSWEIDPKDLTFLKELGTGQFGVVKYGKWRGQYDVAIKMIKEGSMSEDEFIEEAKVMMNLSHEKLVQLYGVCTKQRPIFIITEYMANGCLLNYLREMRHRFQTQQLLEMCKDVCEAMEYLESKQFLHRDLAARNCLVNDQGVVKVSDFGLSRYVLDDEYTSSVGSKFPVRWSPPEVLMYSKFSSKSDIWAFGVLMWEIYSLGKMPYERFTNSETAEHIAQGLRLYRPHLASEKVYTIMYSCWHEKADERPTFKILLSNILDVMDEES
Assay [2] addresses Serine/threonine-protein kinase SIK3 (Homo sapiens) (UniProt Q9Y2K2). Description: Inhibition of QSK (unknown origin) at 1 uM by Ambit Kinomescan binding assay relative to control.
The target in assay [3] is Ribosomal protein S6 kinase alpha-6 (Homo sapiens) (UniProt Q9UK32). As to the kind of experiment: Inhibition of C-terminal RSK4 kinase domain 2 (unknown origin) at 1 uM by Ambit Kinomescan binding assay relative to control.
Assay [4] deals with T1, Serine/threonine-protein kinase TAO3 (Homo sapiens) (UniProt Q9H2K8).
T1 sequence (whole entry): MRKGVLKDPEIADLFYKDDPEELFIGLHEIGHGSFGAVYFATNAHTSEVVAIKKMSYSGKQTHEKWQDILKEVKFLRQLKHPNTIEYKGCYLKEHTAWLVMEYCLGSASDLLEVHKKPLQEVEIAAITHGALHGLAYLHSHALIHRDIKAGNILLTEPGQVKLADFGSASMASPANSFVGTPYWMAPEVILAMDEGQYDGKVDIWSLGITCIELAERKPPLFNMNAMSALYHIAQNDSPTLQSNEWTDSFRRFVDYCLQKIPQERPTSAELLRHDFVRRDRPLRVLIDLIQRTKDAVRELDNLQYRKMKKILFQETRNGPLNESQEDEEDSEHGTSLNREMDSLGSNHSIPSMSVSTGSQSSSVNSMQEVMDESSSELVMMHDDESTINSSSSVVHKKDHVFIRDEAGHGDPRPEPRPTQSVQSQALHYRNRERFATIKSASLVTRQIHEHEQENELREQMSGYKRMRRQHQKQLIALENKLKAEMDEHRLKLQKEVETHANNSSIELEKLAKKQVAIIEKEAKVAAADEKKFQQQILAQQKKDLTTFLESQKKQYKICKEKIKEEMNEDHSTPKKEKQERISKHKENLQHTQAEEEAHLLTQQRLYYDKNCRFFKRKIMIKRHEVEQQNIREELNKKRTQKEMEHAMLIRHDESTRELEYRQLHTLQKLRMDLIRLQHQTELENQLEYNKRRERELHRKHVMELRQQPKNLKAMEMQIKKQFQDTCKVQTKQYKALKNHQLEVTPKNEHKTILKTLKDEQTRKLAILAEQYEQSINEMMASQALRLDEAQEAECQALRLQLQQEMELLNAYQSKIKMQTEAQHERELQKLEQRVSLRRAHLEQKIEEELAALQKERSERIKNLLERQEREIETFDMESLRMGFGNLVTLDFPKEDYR
Description: Inhibition of TAO3 Lys2 labeling site in human A-375 cells at 5 uM by KiNativ Profiling analysis relative to control. The class given is cell-based.

Assay [5] deals with Cyclin-G-associated kinase (Homo sapiens) (UniProt O14976). Description: Inhibition of GAK (unknown origin) at 1 uM by Ambit Kinomescan binding assay relative to control; values are per cent of control.
Assay [6] concerns the target Muscle, skeletal receptor tyrosine-protein kinase (Homo sapiens) (UniProt O15146). Description: Inhibition of MUSK (unknown origin) at 1 uM by Ambit Kinomescan binding assay relative to control; values are per cent of control.
In assay [7] the test system is Epidermal growth factor receptor (Homo sapiens), P00533 [UNDEFINED MUTATION]. Description: Inhibition of EGFR L747-E749del/A750P mutant (unknown origin) at 10 uM by Ambit Kinomescan binding assay relative to control.
Epidermal growth factor receptor (Homo sapiens), P00533 [UNDEFINED MUTATION], sequence (P00533 whole entry, looked up, stated change not applied): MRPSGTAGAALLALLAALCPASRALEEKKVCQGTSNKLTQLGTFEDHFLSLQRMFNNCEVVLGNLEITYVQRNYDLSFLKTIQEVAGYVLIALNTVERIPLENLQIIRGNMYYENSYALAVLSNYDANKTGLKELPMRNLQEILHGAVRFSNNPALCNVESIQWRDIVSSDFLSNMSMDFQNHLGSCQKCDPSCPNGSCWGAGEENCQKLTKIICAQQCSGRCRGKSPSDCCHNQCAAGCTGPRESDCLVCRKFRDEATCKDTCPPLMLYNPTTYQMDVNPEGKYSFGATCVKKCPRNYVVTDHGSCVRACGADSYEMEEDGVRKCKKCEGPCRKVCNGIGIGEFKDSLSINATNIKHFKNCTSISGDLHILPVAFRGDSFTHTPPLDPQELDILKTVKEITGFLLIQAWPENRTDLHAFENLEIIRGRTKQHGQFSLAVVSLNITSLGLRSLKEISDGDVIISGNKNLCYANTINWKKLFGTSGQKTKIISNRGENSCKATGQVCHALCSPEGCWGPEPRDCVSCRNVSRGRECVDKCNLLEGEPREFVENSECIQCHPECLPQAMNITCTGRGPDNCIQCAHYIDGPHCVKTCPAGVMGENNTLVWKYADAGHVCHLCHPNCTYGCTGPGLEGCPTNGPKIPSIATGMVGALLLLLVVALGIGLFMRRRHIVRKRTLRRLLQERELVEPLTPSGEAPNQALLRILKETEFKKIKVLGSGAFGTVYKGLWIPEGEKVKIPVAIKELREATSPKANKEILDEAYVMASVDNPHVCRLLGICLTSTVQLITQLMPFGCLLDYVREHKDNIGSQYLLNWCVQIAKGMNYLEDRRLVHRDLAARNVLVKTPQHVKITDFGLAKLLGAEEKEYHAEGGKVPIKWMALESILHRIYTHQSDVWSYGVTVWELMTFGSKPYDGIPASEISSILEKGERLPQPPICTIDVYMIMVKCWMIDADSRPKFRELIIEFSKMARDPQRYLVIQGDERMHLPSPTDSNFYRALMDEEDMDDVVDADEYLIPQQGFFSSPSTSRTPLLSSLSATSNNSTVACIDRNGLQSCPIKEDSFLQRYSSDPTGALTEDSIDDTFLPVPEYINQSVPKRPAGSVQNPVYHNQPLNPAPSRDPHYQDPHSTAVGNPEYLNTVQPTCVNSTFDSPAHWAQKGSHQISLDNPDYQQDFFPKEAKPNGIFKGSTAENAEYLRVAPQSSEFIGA
In assay [8] the target is Receptor tyrosine-protein kinase erbB-4 (Homo sapiens) (UniProt Q15303). Description: Inhibition of ERBB4 (unknown origin) at 10 uM by Ambit Kinomescan binding assay.
In assay [9] the target is Mitogen-activated protein kinase 7 (Homo sapiens) (UniProt Q13164). As to the kind of experiment: Inhibition of ERK5 (unknown origin) at 10 uM by Ambit Kinomescan binding assay.
For assay [10], the target named is Platelet-derived growth factor receptor alpha (Homo sapiens) (UniProt P16234). Description: Inhibition of PDGFRA (unknown origin) at 10 uM by Ambit Kinomescan binding assay relative to control.
The target in assay [11] is Ribosomal protein S6 kinase alpha-1 (Homo sapiens) (UniProt Q15418). Description: Inhibition of RSK1 domain1 Lys1 labeling site in human A-375 cells at 0.5 uM by KiNativ Profiling analysis relative to control. The class given is cell-based.
Assay [12] has as its target Tyrosine-protein kinase JAK1 (Homo sapiens) (UniProt P23458). As to the kind of experiment: Inhibition of JAK1 Domain 2 ACT labeling site harbouring IGDFGLTKAIETDKEYYTVK in human Huh-7 cells at 1 uM by KiNativ Profiling analysis relative to control. The class given is cell-based.
For assay [13], the target named is Cyclin-dependent kinase 1 (Homo sapiens) (UniProt P06493). As to the kind of experiment: Inhibition of CDC2 K2 labeling site harbouring DLKPQNLLIDDKGTIK in human Huh-7 cells at 1 uM by KiNativ Profiling analysis relative to control. The assay is classed as cell-based.
Cyclin-dependent kinase 1 (Homo sapiens), sequence (P06493 whole entry, looked up): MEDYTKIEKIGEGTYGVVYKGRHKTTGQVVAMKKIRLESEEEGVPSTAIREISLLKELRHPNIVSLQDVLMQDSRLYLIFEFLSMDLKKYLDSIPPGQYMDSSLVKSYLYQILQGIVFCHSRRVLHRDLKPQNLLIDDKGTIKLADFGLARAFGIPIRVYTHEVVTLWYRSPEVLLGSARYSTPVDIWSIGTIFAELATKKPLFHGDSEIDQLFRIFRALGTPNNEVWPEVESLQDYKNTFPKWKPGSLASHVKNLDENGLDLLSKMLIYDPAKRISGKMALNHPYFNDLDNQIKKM
For assay [14], the target named is Hepatocyte growth factor receptor (Homo sapiens) (UniProt P08581). As to the kind of experiment: Inhibition of MET ACT labeling site in human Huh-7 cells at 1 uM by KiNativ Profiling analysis relative to control. The class given is cell-based.
Hepatocyte growth factor receptor (Homo sapiens), sequence (P08581 whole entry): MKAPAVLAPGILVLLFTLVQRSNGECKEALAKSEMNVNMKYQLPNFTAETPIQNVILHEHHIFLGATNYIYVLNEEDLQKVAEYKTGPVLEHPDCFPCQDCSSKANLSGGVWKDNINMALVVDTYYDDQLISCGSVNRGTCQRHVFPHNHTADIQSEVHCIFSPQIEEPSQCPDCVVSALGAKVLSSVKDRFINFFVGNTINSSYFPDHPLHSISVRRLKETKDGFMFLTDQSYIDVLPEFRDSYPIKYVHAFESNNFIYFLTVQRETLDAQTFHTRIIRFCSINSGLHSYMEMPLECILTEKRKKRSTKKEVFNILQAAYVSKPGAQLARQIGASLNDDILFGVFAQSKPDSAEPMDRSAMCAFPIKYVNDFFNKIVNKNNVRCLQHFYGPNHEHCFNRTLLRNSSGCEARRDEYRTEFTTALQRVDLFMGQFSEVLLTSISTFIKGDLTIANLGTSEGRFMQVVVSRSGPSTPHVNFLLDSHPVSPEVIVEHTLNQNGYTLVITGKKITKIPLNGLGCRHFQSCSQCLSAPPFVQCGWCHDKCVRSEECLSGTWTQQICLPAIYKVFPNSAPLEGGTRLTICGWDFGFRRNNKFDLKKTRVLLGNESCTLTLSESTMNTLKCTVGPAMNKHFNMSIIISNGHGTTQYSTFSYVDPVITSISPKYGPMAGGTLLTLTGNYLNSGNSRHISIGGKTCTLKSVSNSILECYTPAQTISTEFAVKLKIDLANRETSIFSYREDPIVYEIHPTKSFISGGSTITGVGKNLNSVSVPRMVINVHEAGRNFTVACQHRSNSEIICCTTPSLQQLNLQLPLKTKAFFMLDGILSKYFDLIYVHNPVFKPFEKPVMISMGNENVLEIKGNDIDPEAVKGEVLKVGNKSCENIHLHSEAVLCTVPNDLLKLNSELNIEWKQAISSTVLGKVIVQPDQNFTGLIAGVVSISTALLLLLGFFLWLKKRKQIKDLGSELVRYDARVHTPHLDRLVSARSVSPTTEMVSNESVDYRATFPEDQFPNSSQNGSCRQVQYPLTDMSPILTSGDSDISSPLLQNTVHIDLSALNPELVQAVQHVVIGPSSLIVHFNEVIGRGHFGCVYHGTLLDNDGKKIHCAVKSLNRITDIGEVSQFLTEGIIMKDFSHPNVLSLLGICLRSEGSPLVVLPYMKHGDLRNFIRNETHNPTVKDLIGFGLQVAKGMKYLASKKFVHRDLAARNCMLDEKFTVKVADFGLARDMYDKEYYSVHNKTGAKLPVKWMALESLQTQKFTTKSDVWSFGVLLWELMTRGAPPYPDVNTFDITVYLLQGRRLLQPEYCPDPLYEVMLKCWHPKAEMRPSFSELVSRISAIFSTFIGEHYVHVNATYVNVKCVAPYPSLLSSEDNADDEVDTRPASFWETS
In assay [15] the target is Proto-oncogene tyrosine-protein kinase receptor Ret (Homo sapiens) (UniProt P07949). Description: Inhibition of RET (unknown origin) at 10 uM by Ambit Kinomescan binding assay relative to control; values are per cent of control.
Assay [16] concerns the target Dual specificity mitogen-activated protein kinase kinase 1 (Homo sapiens) (UniProt Q02750). As to the kind of experiment: Inhibition of MAP2K1 Lys2 labeling site harbouring IMHRDVKPSNILVNSR in human Huh-7 cell lysate at 1 uM by KiNativ Profiling analysis relative to control. The assay is classed as subcellular.

Tyrosine-protein kinase JAK1 (Homo sapiens), sequence (P23458 whole entry, the tested form may be a part): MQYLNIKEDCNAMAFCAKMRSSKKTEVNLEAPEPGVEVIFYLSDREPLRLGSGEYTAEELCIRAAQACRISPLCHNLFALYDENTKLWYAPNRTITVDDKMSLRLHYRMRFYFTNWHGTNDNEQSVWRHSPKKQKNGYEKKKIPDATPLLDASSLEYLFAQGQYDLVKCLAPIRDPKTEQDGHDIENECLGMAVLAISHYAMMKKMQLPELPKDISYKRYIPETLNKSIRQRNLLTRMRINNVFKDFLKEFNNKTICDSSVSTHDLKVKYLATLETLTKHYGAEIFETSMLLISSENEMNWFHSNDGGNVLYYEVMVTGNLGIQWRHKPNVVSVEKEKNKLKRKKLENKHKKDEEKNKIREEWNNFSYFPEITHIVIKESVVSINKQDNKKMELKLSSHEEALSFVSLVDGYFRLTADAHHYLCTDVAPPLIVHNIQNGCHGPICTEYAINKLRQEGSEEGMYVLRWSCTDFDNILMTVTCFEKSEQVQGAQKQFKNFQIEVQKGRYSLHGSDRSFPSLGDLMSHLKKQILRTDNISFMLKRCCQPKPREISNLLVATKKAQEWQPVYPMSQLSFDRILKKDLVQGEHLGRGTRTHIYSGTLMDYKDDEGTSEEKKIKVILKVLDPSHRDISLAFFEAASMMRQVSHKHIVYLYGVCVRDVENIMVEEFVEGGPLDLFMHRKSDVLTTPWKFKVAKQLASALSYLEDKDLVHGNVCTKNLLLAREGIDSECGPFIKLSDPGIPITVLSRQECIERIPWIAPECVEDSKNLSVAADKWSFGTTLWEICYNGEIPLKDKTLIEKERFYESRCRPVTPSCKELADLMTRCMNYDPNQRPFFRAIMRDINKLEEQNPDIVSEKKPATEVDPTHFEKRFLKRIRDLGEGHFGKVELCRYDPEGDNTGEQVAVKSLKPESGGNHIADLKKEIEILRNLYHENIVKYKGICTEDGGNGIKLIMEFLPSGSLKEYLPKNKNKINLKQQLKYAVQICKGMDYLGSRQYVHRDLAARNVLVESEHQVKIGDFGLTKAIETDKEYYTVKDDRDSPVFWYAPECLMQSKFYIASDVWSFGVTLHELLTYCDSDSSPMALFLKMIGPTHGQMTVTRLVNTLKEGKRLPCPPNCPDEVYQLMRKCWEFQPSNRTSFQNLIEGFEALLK
Dual specificity mitogen-activated protein kinase kinase 1 (Homo sapiens), sequence (Q02750 whole entry): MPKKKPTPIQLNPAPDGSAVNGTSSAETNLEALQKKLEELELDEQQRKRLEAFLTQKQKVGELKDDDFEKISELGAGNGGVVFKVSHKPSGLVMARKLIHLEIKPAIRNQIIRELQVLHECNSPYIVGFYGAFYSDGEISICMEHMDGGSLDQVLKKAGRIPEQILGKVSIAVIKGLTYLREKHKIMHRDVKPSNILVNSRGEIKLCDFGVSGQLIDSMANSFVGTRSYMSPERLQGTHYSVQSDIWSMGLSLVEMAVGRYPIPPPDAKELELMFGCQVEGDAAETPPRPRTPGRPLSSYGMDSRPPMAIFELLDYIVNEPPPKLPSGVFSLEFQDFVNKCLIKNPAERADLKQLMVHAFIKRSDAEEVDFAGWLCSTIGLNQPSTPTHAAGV

Take `CCN1CCN(Cc2ccc(NC(=O)c3ccc(C)c(/C=C/c4cnc5[nH]ccc5c4OC)c3)cc2C(F)(F)F)CC1`: the inhibition in assay [1] was 10%; in assay [2], 100%; in [3], 50%; in [4], 66.2%. Besides, the residual activity amounted to 7% in [5] and 2% in [6].

Consider `CCN1CCN(Cc2ccc(NC(=O)c3ccc(C)c(Oc4ccnc5[nH]ccc45)c3)cc2C(F)(F)F)CC1`, for which the inhibition in assay [7] is 1.5%; in assay [8], 28%; in assay [10], 0.6%; in assay [11], -0.7%; in assay [12] it was -6.4%; in assay [13], 7.9%. Moreover, the inhibition in [14] was determined as 15.5%. Moreover, the inhibition result in [9] was “inactive”. In addition, the residual activity in assay [15] is 0%.

As for `CNc1cc(Oc2cc(C(=O)Nc3cc(N4CCN(C)CC4)cc(C(F)(F)F)c3)ccc2C)ncn1`, the inhibition in assay [16] was found to be 23.6%.
